Data published in US20100202971A1, “COMPOUND HAVING TUMOR-RESIDENT PROPERTY” (priority 2009, published 2010).

Experiments:
Type in all cases: in vivo, KSN nude mice
[1] = system: human esophageal squamous cell carcinoma cells TE-8; experiment: Biological distribution of biotinated αSQMG in tumor of tumor-bearing nude mice (TRITC-avidin staining of tumor segments); settings: intravenous 40, 20 and 2 mg/kg, FIG. 1
Procedure: 1×10^6 of human esophageal squamous cell carcinoma cells TE-8 were transplanted into the right femoral region of 11 male KSN nude mice (Japan SLC, Inc.), and the mice were bred to form a tumor mass of about […] volume.
Thereafter, biotinated αSQMG C18:0 (formula XI) was dissolved in physiological saline solution, and 0.1 mL of the solution per administration was intravenously administered to each group comprising three mice so that the amount of the biotinated αSQMG C18:0 could be 40 mg/kg, 20 mg/kg, and 2 mg/kg. To two reference tumor bearing mice, physiological saline was administered. […]
In order to evaluate a tumor region which emits fluorescence due to TRITC, binarization imaging was performed with use of Photoshop. Thereafter, a portion (fraction) containing tumor tissues was selected from the visual field, and the number of pixels of a TRITC positive region (black color region) and the entire region were counted and the ratio of the positive region was calculated according to the formula:
The proportion (%) of biotinated αSQAP detected region=[the area of the black color region (region where the biotinated αSQMG was detected)]/[the area of the whole of the selected fraction]×100=[the number of pixels in the TRITC positive region]/[the number of pixels in the whole fraction]×100 (%) formula (A) […]

[2] = system: human colon carcinoma cells (SW480); experiment: Pharmacokinetics 1: concentration-time course in blood plasma, organs and tumor after intraperitoneal administration (LC/MS); settings: 10 mg/kg intraperitoneal; for concentration in tumor tissues immediately after administration in comparison with other tissues / concentration in tumor tissues 24 hours after administration / residence in tumor tissues: SW480 tumor; for time of the highest concentration in blood plasma, liver, kidney, spleen and lung / time after administration at which concentration fell below the detection limit, blood plasma / time after administration at which concentration fell below the detection limit, kidney / time after administration at which concentration fell below the detection limit, liver / time after administration at which concentration fell below the detection limit, lung / time after administration at which concentration fell below the detection limit, spleen: SW480 tumor-bearing nude mice; for residence in tumor tissues: followed to 24 hours
Procedure: To eight-week-old male KSN nude mice (Japan SLC, Inc.), 2×10^6 of human colon carcinoma cells (SW480) were transplanted subcutaneously, two weeks later (body weight approximately 25 g, tumor volume approximately 200 mm^3) αSQMG C18:0 or αSQAP C18:0 was dissolved in physiological saline solution and administered intraperitoneally at a dose of 10 mg/kg (0.1 mL). After the administration, the mice were slaughtered chronologically with carbon dioxide; 30 minute, 1 hour, 2 hours, 4 hours, 12 hours, and 24 hours after the administration. Tissues of blood, liver, kidney, lung and spleen, and tumor tissue were then collected. At each time when tissues were collected, five animals were used.
Whole blood was collected from postcaval vein with use of an injection needle wetted with heparin sodium injection solution (10,000 unit/10 mL) to obtain blood plasma by 20 minutes of centrifugation at 6,000 g. To 90 μl of blood plasma, 5 μl of an internal standard compound (αSQMG C16:0), 5 μl of distilled water, and 4 μl of phosphoric acid were added, and denatured protein by adding 96 μl of acetonitrile. To 0.2 mL of the solution, 600 μl of 10 mM ammonium acetate solution was added, and stirred sufficiently to obtain supernatant by centrifugation at 16,000 g for 15 minutes. The supernatant was subjected to solid-phase extraction operation as described below. The solid-phase extraction was performed by washing with 1000 μl of 10 mM ammonium acetate aqueous solution and 200 μl of 10 mM ammonium acetate aqueous solution containing 10% acetonitrile, followed by elution of a test compound with 200 μl of 10 mM ammonium acetate aqueous solution containing 70% acetonitrile with use of Empore (trademark) disc cartridge (3M Company, product number 4115SD). The compound was used as a LC/MS analytical sample.
Each organ was extirpated after collection of blood and immediately frozen on dry ice. The frozen sample was subjected to frost shattering, and the weight was measured. Subsequently, ½-fold (weight ratio) internal standard compound (αSQMG C16:0) and distilled water were added, and 8-fold (weight ratio) extraction solution (2.5% NP-40, 2% phosphoric acid, 2 mM Eserine aqueous solution) was further added to the sample, followed by homogenization. The homogenized solution was subjected to protein denaturation with acetonitrile and solid phase extraction in the same manner as the above-mentioned treatment of blood plasma to obtain an analytical sample.
10 μl of the analytical sample was separated with a reverse phase HPLC system equipped with Capcell Pak MG column (particle diameter; 3 μm, column size; 2.1×50 mm, Shiseido Co., Ltd.). HPLC was performed with 68% acetonitrile and a single solvent of 10 mM ammonium acetate aqueous solution at a flow rate of 0.2 mL per minute. Mass spectrum was measured in a negative mode, and the peak area ratio of the internal standard compound was calculated by integration of the peak area from chromatogram corresponding to each ion by measuring a precursor ion; m/z=583.1, fragment ion; m/z=224.7 and m/z=298.8 for αSQMG C18:0, a precursor ion; m/z=567.1, fragment ion; m/z=224.7 and m/z=283.1 for αSQAP C18:0, and a precursor ion; m/z=555.1, fragment ion; m/z=224.7 and m/z=298.8 for a internal standard compound αSQMG C16:0. As a method of quantitative analysis, an internal standard analysis was adopted. More specifically, a standard curve was drawn based on the peak area ratio of the internal standard compound by analyzing the sample to which the test compound was added, to determine the quantity of the test compound.

[3] = system: human sophageal squamous cell carcinoma cells TE-8; experiment: Pharmacokinetics 2: concentration-time course in blood plasma, organs and tumor after intravenous administration (LC/MS); settings: 1 mg/kg intravenous
Procedure: To eight-week-old male KSN nude mice (Japan SLC, Inc.), 2×10^6 of human colon carcinoma cells (SW480) were transplanted subcutaneously, two weeks later (body weight approximately 25 g, tumor volume approximately 200 mm^3) αSQMG C18:0 or αSQAP C18:0 was dissolved in physiological saline solution and administered intraperitoneally at a dose of 10 mg/kg (0.1 mL). After the administration, the mice were slaughtered chronologically with carbon dioxide; 30 minute, 1 hour, 2 hours, 4 hours, 12 hours, and 24 hours after the administration. Tissues of blood, liver, kidney, lung and spleen, and tumor tissue were then collected. At each time when tissues were collected, five animals were used. Whole blood was collected from postcaval vein with use of an injection needle wetted with heparin sodium injection solution (10,000 unit/10 mL) to obtain blood plasma by 20 minutes of centrifugation at 6,000 g. To 90 μl of blood plasma, 5 μl of an internal standard compound (αSQMG C16:0), 5 μl of distilled water, and 4 μl of phosphoric acid were added, and denatured protein by adding 96 μl of acetonitrile. To 0.2 mL of the solution, 600 μl of 10 mM ammonium acetate solution was added, and stirred sufficiently to obtain supernatant by centrifugation at 16,000 g for 15 minutes. The supernatant was subjected to solid-phase extraction operation as described below. The solid-phase extraction was performed by washing with 1000 μl of 10 mM ammonium acetate aqueous solution and 200 μl of 10 mM ammonium acetate aqueous solution containing 10% acetonitrile, followed by elution of a test compound with 200 μl of 10 mM ammonium acetate aqueous solution containing 70% acetonitrile with use of Empore (trademark) disc cartridge (3M Company, product number 4115SD). The compound was used as a LC/MS analytical sample. Each organ was extirpated after collection of blood and immediately frozen on dry ice. The frozen sample was subjected to frost shattering, and the weight was measured. Subsequently, ½-fold (weight ratio) internal standard compound (αSQMG C16:0) and distilled water were added, and 8-fold (weight ratio) extraction solution (2.5% NP-40, 2% phosphoric acid, 2 mM Eserine aqueous solution) was further added to the sample, followed by homogenization. The homogenized solution was subjected to protein denaturation with acetonitrile and solid phase extraction in the same manner as the above-mentioned treatment of blood plasma to obtain an analytical sample. 10 μl of the analytical sample was separated with a reverse phase HPLC system equipped with Capcell Pak MG column (particle diameter; 3 μm, column size; 2.1×50 mm, Shiseido Co., Ltd.). HPLC was performed with 68% acetonitrile and a single solvent of 10 mM ammonium acetate aqueous solution at a flow rate of 0.2 mL per minute. Mass spectrum was measured in a negative mode, and the peak area ratio of the internal standard compound was calculated by integration of the peak area from chromatogram corresponding to each ion by measuring a precursor ion; m/z=583.1, fragment ion; m/z=224.7 and m/z=298.8 for αSQMG C18:0, a precursor ion; m/z=567.1, fragment ion; m/z=224.7 and m/z=283.1 for αSQAP C18:0, and a precursor ion; m/z=555.1, fragment ion; m/z=224.7 and m/z=298.8 for a internal standard compound αSQMG C16:0. As a method of quantitative analysis, an internal standard analysis was adopted. More specifically, a standard curve was drawn based on the peak area ratio of the internal standard compound by analyzing the sample to which the test compound was added, to determine the quantity of the test compound. The pharmacokinetics of αSQAP C18:0 was tested by administering 1 mg/kg of αSQAP C18:0 to animals in the same manner as Example 3 except that human sophageal squamous cell carcinoma cells TE-8 were used as tumor of transplanted tumor model and that intravenous administration was adopted as substitute for interperitoneal administration.

Row | Compound | tumor-resident amount ([1]; 9 hours after administration) | staining of tumor tissues (TRITC positive region) ([1]; tumor extracted 9 hours after administration, TE-8 tumor) | concentration in tumor tissues immediately after administration in comparison with other tissues [2] | time of the highest concentration in blood plasma, liver, kidney, spleen and lung [2] | time after administration at which concentration fell below the detection limit, blood plasma [2] | time after administration at which concentration fell below the detection limit, kidney [2] | time after administration at which concentration fell below the detection limit, liver [2] | time after administration at which concentration fell below the detection limit, lung [2] | time after administration at which concentration fell below the detection limit, spleen [2] | concentration in tumor tissues 24 hours after administration [2] | residence in tumor tissues [2] | concentration in tumor tissue immediately after administration in comparison with other organs ([3]; TE-8 tumor) | time of the highest concentration in blood plasma, liver, spleen and lung ([3]; TE-8 tumor-bearing nude mice) | time after administration at which concentration fell below the detection limit, blood plasma ([3]; TE-8 tumor-bearing nude mice, blood plasma) | time after administration at which concentration fell below the detection limit, liver ([3]; TE-8 tumor-bearing nude mice, liver) | time after administration at which concentration fell below the detection limit, lung ([3]; TE-8 tumor-bearing nude mice, lung) | time after administration at which concentration fell below the detection limit, spleen ([3]; TE-8 tumor-bearing nude mice, spleen) | concentration in tumor tissue after 24 hours ([3]; TE-8 tumor, 24 hours) | course of concentration in tumor tissue after two hours ([3]; TE-8 tumor, after two hours) | residence in tumor tissues ([3]; TE-8 tumor, followed to 24 hours)
1 | 3-O-[4-O-(biotinyl-β-alanyl)-6-sulfo-α-D-quinovopyranosyl]-1-0-stearoyl-glycerol [biotinated αSQMG C18:0] | high | strongly stained according to the dose | – | – | – | – | – | – | – | – | – | – | – | – | – | – | – | – | – | –
2 | CCCCCCCCCCCCCCCCCC(=O)OCC(O)CO[C@H]1O[C@H](CS(=O)(=O)[O-])[C@@H](O)[C@H](O)[C@H]1O.[Na+] (some centres unmarked) [αSQMG C18:0] | – | – | low | immediately after the administration | four | four | four | four | 12 h | detectable | resides for a long period | – | – | – | – | – | – | – | – | –
3 | CCCCCCCCCCCCCCCCCC(=O)OCCCO[C@H]1O[C@H](CS(=O)(=O)[O-])[C@@H](O)[C@H](O)[C@H]1O.[Na+] [αSQAP C18:0] | – | – | low | immediately after the administration | four | four | 12 h | four | four | detectable | resides for a long period | low | immediately after administration | two | two | two | 24 h | detectable | no decrease tendency | resides for a long period
